These are literature values, as cited in patent US12213962B2, “Drug resistant immunotherapy for treatment of a cancer” (Emory University, priority 2009, dated 2025).

The structures appear in SMILES notation.

For this data set, the system named is AG104 sarcoma cells. Particulars: mice transplanted with non-modified, TMTX-sensitive cells.

As to `COc1cc(NCc2ccc3nc(N)nc(N)c3c2C)cc(OC)c1OC` [TMTX, trimetrexate], the “effect on efficacy of anti-CD137 antibody” value is listed as “reduced the efficacy”.
